From ChEMBL document CHEMBL1926681, “Novel inhibitors of epidermal growth factor receptor: (4-(Arylamino)-7H-pyrrolo[2,3-d]pyrimidin-6-yl)(1H-indol-2-yl)methanones and (1H-indol-2-yl)(4-(phenylamino)thieno[2,3-d]pyrimidin-6-yl)methanones” (Bioorg Med Chem, 2012)
The source made the active and inactive calls. The calls are words filed in the database; no cut-off is given here.

What was measured:
[1] = Cytotoxicity against human PXF 698L cells after 4 days by propidium iodide staining-based fluorometric analysis; assay type: functional, cell-based; conditions: 96 h
[2] = Cytotoxicity against human RXF 393NL cells after 4 days by propidium iodide staining-based fluorometric analysis; assay type: functional, cell-based; conditions: 96 h
[3] = biological target: Hepatocyte growth factor receptor (Homo sapiens) (UniProt P08581); test: Inhibition of MET using poly(Ala, Glu, Lys, Tyr) as substrate and [gamma33P]ATP at 1 uM after 60 mins by scintillation counting
[4] = Cytotoxicity against human OVXF 899L cells after 4 days by propidium iodide staining-based fluorometric analysis; assay type: functional, cell-based; conditions: 96 h
CWR22R = test: Cytotoxicity against human 22Rv1 cells after 4 days by propidium iodide staining-based fluorometric analysis; assay type: functional, cell-based; conditions: 22Rv1, 96 h
[5] = Cytotoxicity against human PAXF 546L cells after 4 days by propidium iodide staining-based fluorometric analysis; assay type: functional, cell-based; conditions: 96 h
[6] = Cytotoxicity against human DIFI cells after 4 days by propidium iodide staining-based fluorometric analysis; assay type: functional, cell-based; conditions: 96 h
MCF7 = test: Cytotoxicity against human MCF7 cells after 4 days by propidium iodide staining-based fluorometric analysis; assay type: functional, cell-based; conditions: MCF7, 96 h
DU-145 = test: Cytotoxicity against human DU145 cells after 4 days by propidium iodide staining-based fluorometric analysis; assay type: functional, cell-based; conditions: DU-145, 96 h
[7] = Cytotoxicity against human MEXF 1341L cells after 4 days by propidium iodide staining-based fluorometric analysis; assay type: functional, cell-based; conditions: 96 h
[8] = Cytotoxicity against human RXF 486L cells after 4 days by propidium iodide staining-based fluorometric analysis; assay type: functional, cell-based; conditions: 96 h
[9] = Cytotoxicity against human BXF T24 cells after 4 days by propidium iodide staining-based fluorometric analysis; assay type: functional, cell-based; conditions: T-24, 96 h
[10] = Cytotoxicity against human CXF 269L cells after 4 days by propidium iodide staining-based fluorometric analysis; assay type: functional, cell-based; conditions: 96 h
[11] = biological target: T1, Epidermal growth factor receptor (Homo sapiens, UniProt P00533); test: Inhibition of EGFR using poly(Glu,Tyr)4:1 as substrate and [gamma33P]ATP after 60 mins by scintillation counting
[12] = Cytotoxicity against human LXFA 526L cells after 4 days by propidium iodide staining-based fluorometric analysis; assay type: functional, cell-based; conditions: 96 h
[13] = Cytotoxicity against human PAXF 1657L cells after 4 days by propidium iodide staining-based fluorometric analysis; assay type: functional, cell-based; conditions: 96 h
[14] = Cytotoxicity against human LXFA 289L cells after 4 days by propidium iodide staining-based fluorometric analysis; assay type: functional, cell-based; conditions: 96 h
OVCAR-3 = test: Cytotoxicity against human OVCAR3 cells after 4 days by propidium iodide staining-based fluorometric analysis; assay type: functional, cell-based; conditions: OVCAR-3, 96 h
[15] = Cytotoxicity against human MAXF 401NL cells after 4 days by propidium iodide staining-based fluorometric analysis; assay type: functional, cell-based; conditions: 96 h
[16] = Cytotoxicity against human RXF 1781L cells after 4 days by propidium iodide staining-based fluorometric analysis; assay type: functional, cell-based; conditions: 96 h
HCT-116 = test: Cytotoxicity against human HCT116 cells after 4 days by propidium iodide staining-based fluorometric analysis; assay type: functional, cell-based; conditions: HCT-116, 96 h
[17] = Cytotoxicity against human GXF251L cells after 4 days by propidium iodide staining-based fluorometric analysis; assay type: functional, cell-based; conditions: GXF 251L, 96 h
[18] = Cytotoxicity against human PC3M cells after 4 days by propidium iodide staining-based fluorometric analysis; assay type: functional, cell-based; conditions: PC-3M, 96 h
RKO = test: Cytotoxicity against human RKO cells after 4 days by propidium iodide staining-based fluorometric analysis; assay type: functional, cell-based; conditions: 96 h
LNCaP = test: Cytotoxicity against human LNCAP cells after 4 days by propidium iodide staining-based fluorometric analysis; assay type: functional, cell-based; conditions: 96 h
[19] = Cytotoxicity against human UXF 1138L cells after 4 days by propidium iodide staining-based fluorometric analysis; assay type: functional, cell-based; conditions: 96 h
[20] = Cytotoxicity against human LXFL 1121L cells after 4 days by propidium iodide staining-based fluorometric analysis; assay type: functional, cell-based; conditions: 96 h
[21] = Cytotoxicity against human LXFA 629L cells after 4 days by propidium iodide staining-based fluorometric analysis; assay type: functional, cell-based; conditions: 96 h
SAOS-2 = test: Cytotoxicity against human Saos2 cells after 4 days by propidium iodide staining-based fluorometric analysis; assay type: functional, cell-based; conditions: SAOS-2, 96 h, read-out: IC50
[22] = biological target: Vascular endothelial growth factor receptor 2 (Homo sapiens) (UniProt P35968); test: Inhibition of VEGFR2 using poly(Glu,Tyr)4:1 as substrate and [gamma33P]ATP at 1 uM after 60 mins by scintillation counting
NCI-H460 = test: Cytotoxicity against human H460 cells after 4 days by propidium iodide staining-based fluorometric analysis; assay type: functional, cell-based; conditions: NCI-H460, 96 h
[23] = Cytotoxicity against human BXF 1352L cells after 4 days by propidium iodide staining-based fluorometric analysis; assay type: functional, cell-based; conditions: 96 h
[24] = Cytotoxicity against human BXF 1218L cells after 4 days by propidium iodide staining-based fluorometric analysis; assay type: functional, cell-based; conditions: 96 h
[25] = Cytotoxicity against human LXFL 529L cells after 4 days by propidium iodide staining-based fluorometric analysis; assay type: functional, cell-based; conditions: 96 h
[26] = Cytotoxicity against human PXF 1752L cells after 4 days by propidium iodide staining-based fluorometric analysis; assay type: functional, cell-based; conditions: 96 h
[27] = Cytotoxicity against human MDA231 cells after 4 days by propidium iodide staining-based fluorometric analysis; assay type: functional, cell-based; conditions: MDA-MB-231, 96 h
[28] = biological target: Tyrosine-protein kinase ABL1 (Homo sapiens) (UniProt P00519); test: Inhibition of ABL1 using poly(Ala, Glu, Lys, Tyr) as substrate and [gamma33P]ATP at 1 uM after 60 mins by scintillation counting
CAL-27 = test: Cytotoxicity against human CAL27 cells after 4 days by propidium iodide staining-based fluorometric analysis; assay type: functional, cell-based; conditions: CAL-27, 96 h
TE-671 = test: Cytotoxicity against human TE671 cells after 4 days by propidium iodide staining-based fluorometric analysis; assay type: functional, cell-based; conditions: TE-671, 96 h
MKN-45 = test: Cytotoxicity against human MKN45 cells after 4 days by propidium iodide staining-based fluorometric analysis; assay type: functional, cell-based; conditions: MKN-45, 96 h
HT-29 = test: Cytotoxicity against human HT-29 cells after 4 days by propidium iodide staining-based fluorometric analysis; assay type: functional, cell-based; conditions: HT-29, 96 h
[29] = Cytotoxicity against human MEXF 462NL cells after 4 days by propidium iodide staining-based fluorometric analysis; assay type: functional, cell-based; conditions: 96 h
[30] = Cytotoxicity against human LIXF 575L cells after 4 days by propidium iodide staining-based fluorometric analysis; assay type: functional, cell-based; conditions: 96 h
[31] = biological target: T1, Epidermal growth factor receptor; test: Inhibition of EGFR using poly(Glu,Tyr)4:1 as substrate and [gamma33P]ATP at 1 uM after 60 mins by scintillation counting
[32] = Cytotoxicity against human PXF 1118L cells after 4 days by propidium iodide staining-based fluorometric analysis; assay type: functional, cell-based; conditions: 96 h
[33] = biological target: Receptor tyrosine-protein kinase erbB-2 (Homo sapiens) (UniProt P04626); test: Inhibition of Erbb2 using poly(Glu,Tyr)4:1 as substrate and [gamma33P]ATP at 1 uM after 60 mins by scintillation counting
PANC-1 = test: Cytotoxicity against human PANC1 cells after 4 days by propidium iodide staining-based fluorometric analysis; assay type: functional, cell-based; conditions: PANC-1, 96 h
[34] = Cytotoxicity against human MEXF 276L cells after 4 days by propidium iodide staining-based fluorometric analysis; assay type: functional, cell-based; conditions: MEXF276L, 96 h
[35] = biological target: T1, Epidermal growth factor receptor; test: Inhibition of EGFR autophosphorylation in EGF-stimulated human A431 cells after 1 hr by immunoblotting; assay type: cell-based, A-431

T1 sequence (P00533 whole entry): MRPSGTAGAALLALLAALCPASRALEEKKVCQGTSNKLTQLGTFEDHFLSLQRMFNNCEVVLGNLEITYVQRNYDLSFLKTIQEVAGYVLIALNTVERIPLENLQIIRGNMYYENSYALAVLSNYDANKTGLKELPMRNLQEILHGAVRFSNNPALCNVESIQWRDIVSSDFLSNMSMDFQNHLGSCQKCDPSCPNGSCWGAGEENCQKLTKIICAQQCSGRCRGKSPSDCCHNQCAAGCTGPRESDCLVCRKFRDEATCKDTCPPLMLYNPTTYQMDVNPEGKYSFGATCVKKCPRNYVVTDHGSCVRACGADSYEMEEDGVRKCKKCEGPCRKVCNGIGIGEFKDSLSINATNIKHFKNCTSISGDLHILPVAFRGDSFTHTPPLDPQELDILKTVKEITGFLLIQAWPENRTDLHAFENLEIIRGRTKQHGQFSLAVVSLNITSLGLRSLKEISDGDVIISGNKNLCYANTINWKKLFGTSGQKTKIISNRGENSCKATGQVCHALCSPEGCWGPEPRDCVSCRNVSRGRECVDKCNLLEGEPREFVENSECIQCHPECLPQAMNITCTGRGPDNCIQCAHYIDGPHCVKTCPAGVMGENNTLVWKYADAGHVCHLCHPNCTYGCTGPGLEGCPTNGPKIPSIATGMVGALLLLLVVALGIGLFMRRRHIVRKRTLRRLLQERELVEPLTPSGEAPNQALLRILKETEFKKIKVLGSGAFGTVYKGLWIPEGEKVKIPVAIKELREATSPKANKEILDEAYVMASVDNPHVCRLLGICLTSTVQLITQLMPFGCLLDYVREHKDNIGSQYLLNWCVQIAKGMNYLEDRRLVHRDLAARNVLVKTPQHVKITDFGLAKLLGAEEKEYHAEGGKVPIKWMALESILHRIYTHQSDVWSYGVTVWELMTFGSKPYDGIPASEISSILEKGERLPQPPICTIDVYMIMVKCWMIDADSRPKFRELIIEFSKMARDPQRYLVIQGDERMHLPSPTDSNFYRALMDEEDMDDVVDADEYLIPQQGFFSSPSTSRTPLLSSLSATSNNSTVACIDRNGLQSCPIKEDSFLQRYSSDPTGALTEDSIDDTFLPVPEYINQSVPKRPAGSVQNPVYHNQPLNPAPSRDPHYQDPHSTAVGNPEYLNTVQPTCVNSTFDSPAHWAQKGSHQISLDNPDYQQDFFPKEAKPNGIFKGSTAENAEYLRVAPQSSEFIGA
Receptor tyrosine-protein kinase erbB-2 (Homo sapiens), sequence (P04626 whole entry): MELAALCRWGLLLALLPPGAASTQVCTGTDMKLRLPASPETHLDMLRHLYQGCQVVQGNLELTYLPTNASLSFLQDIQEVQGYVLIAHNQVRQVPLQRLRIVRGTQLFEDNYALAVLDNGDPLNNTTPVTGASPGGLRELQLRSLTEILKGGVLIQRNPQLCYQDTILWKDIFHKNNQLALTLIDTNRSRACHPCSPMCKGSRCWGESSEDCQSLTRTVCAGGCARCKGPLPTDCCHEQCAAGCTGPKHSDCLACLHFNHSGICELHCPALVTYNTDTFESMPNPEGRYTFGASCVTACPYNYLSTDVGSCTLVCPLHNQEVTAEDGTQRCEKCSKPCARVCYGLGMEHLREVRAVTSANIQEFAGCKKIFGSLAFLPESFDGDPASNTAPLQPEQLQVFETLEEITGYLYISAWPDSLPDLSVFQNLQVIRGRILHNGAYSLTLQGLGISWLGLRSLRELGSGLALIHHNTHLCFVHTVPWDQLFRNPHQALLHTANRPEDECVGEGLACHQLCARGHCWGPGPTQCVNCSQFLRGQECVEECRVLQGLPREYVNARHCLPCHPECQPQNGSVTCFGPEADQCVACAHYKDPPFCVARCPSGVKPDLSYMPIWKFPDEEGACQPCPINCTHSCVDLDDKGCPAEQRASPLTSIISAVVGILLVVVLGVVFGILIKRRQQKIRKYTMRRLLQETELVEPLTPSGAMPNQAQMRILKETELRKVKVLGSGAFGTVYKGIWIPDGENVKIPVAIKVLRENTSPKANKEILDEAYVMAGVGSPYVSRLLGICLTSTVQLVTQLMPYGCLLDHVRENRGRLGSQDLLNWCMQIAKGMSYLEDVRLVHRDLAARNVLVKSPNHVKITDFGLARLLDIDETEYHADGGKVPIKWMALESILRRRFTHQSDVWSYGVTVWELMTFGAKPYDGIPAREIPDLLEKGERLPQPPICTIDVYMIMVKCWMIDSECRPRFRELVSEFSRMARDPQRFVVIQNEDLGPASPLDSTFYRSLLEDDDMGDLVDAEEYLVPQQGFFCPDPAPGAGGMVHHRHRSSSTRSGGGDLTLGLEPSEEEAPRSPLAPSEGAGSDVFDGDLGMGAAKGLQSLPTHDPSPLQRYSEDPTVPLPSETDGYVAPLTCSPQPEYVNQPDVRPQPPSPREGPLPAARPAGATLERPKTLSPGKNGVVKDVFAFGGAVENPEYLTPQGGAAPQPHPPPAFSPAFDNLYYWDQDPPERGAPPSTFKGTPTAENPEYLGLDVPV
Hepatocyte growth factor receptor (Homo sapiens), sequence (P08581 whole entry): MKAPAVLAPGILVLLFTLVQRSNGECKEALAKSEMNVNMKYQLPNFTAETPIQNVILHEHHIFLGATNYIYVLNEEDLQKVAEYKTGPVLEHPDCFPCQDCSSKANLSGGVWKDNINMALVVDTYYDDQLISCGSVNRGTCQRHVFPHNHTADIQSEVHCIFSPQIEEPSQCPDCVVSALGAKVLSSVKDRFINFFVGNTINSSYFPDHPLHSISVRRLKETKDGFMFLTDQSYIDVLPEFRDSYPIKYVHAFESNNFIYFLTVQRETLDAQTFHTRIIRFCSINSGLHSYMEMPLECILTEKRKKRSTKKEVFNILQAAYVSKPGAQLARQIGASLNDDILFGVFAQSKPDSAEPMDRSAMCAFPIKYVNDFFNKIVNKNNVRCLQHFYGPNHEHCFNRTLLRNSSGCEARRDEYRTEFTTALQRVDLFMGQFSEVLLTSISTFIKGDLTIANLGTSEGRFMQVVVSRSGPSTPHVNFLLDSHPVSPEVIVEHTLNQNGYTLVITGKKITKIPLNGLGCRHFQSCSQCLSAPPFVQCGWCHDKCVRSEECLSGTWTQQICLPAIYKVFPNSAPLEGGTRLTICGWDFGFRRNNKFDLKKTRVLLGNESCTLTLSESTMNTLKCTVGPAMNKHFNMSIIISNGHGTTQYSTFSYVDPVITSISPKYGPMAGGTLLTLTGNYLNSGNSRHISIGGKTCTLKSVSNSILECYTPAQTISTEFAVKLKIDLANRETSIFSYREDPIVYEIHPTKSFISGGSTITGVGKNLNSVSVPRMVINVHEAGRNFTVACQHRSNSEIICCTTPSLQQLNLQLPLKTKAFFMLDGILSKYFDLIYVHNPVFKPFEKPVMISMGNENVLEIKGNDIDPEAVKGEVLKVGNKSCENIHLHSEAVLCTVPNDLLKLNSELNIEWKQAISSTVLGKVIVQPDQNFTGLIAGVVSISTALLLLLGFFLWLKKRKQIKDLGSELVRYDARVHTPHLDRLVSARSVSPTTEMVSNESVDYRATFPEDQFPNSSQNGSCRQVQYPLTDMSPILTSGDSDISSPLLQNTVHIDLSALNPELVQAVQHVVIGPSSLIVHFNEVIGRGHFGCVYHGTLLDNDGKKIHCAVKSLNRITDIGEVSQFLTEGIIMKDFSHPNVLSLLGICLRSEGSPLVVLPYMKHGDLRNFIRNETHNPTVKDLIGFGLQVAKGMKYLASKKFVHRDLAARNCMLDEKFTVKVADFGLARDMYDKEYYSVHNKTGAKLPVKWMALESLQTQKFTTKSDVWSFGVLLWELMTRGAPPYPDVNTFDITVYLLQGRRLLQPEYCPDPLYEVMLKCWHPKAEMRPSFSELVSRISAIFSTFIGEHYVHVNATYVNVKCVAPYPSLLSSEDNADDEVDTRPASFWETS
Tyrosine-protein kinase ABL1 (Homo sapiens), sequence (P00519 whole entry): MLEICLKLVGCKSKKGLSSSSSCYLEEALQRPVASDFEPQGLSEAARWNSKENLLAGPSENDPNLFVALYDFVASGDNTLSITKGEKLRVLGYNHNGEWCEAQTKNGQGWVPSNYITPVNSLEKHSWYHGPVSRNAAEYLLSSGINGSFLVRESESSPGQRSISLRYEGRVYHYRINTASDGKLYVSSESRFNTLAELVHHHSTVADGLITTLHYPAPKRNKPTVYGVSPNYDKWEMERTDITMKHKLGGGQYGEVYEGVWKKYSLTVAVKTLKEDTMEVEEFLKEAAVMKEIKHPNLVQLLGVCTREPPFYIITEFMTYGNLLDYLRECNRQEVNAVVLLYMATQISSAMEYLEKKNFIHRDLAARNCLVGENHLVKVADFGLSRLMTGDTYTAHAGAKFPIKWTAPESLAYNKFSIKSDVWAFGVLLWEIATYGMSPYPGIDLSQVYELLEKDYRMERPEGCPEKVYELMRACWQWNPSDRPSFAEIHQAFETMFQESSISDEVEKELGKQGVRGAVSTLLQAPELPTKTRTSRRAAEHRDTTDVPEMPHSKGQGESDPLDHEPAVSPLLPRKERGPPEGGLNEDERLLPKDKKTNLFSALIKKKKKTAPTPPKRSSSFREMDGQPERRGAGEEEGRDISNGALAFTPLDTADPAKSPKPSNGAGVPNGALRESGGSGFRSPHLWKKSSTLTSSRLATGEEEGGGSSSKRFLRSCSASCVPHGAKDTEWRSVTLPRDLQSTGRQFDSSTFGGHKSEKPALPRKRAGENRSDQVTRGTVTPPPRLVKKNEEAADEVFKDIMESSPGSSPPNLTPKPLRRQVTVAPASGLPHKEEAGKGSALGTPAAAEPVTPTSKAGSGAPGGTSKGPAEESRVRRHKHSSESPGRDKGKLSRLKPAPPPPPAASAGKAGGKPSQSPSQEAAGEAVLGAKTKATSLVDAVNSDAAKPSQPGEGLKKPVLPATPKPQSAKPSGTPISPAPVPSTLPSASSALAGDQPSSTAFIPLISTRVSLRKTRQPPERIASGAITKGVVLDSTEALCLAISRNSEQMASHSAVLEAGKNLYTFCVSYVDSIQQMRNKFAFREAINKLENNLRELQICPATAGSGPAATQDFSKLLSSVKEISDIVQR

For `O=C(c1cc2ccccc2[nH]1)c1cc2c(Nc3ccc(F)c(Cl)c3)ncnc2s1`, the IC50 [1] was 14.3 µM, the IC50 [2] was 11.8 µM and the inhibition [3] was “inactive”. It also gave an IC50 [4] of 5.56 µM, an IC50 (CWR22R) of 5.48 µM and an IC50 [5] of 11.6 µM. For the same compound, the IC50 [6] was 1.39 µM, the IC50 (MCF7) was 6.96 µM and the IC50 (DU-145) was 4.36 µM. It also gave an IC50 [7] of 10.8 µM, an IC50 [8] of 5.5 µM and an IC50 [9] of 11.4 µM. For the same compound, the IC50 [10] was 10.8 µM, the IC50 [11] was 0.00554 µM and the IC50 [12] was 10.7 µM. It also gave an IC50 [13] of 17.6 µM, an IC50 [14] of 6.68 µM and an IC50 (OVCAR-3) of 8.45 µM. It also gave an IC50 [15] of 3.89 µM, an IC50 [16] of 9.05 µM and an IC50 (HCT-116) of 8.39 µM. It also gave an IC50 [17] of 2.76 µM, an IC50 [18] of 5.77 µM and an IC50 (RKO) of 7.29 µM. For the same compound, the IC50 (LNCaP) was 6.11 µM, the IC50 [19] was 4.42 µM and the IC50 [20] was 9.77 µM. The IC50 [21] was 4.88 µM, the IC50 (SAOS-2) was 11.4 µM and the inhibition [22] was 15%. The IC50 (NCI-H460) was 5.82 µM, the IC50 [23] was 11.3 µM and the IC50 [24] was 9.13 µM. The IC50 [25] was 8.61 µM, the IC50 [26] was 13.5 µM and the IC50 [27] was 8.04 µM. For the same compound, the inhibition [28] was “inactive”, the IC50 (CAL-27) was 2.61 µM and the IC50 (TE-671) was 14.1 µM. It also gave an IC50 (MKN-45) of 12.5 µM, an IC50 (HT-29) of 7.83 µM and an IC50 [29] of 8.11 µM. It also gave an IC50 [30] of 8.15 µM, an inhibition [31] of 100% and an IC50 [32] of 17.9 µM. The inhibition [33] was 80%, the IC50 (PANC-1) was 7.01 µM and the IC50 [34] was 10.2 µM.
With `O=C(c1cc2cc(O)ccc2[nH]1)c1cc2c(Nc3ccc(F)c(Cl)c3)ncnc2s1` the IC50 [1] was 9.23 µM, the IC50 [2] was 5.87 µM and the inhibition [3] was “inactive”. For the same compound, the IC50 [4] was 4.07 µM, the IC50 (CWR22R) was 5.61 µM and the IC50 [5] was 8.85 µM. For the same compound, the IC50 [6] was 0.94 µM, the IC50 (MCF7) was 4.22 µM and the IC50 (DU-145) was 2.96 µM. For the same compound, the IC50 [7] was 5.89 µM, the IC50 [8] was 3.37 µM and the IC50 [9] was 9.56 µM. The IC50 [10] was 7.58 µM, the IC50 [11] was 0.024 µM and the IC50 [12] was 4.36 µM. For the same compound, the IC50 [13] was 9.08 µM, the IC50 [14] was 3.25 µM and the IC50 (OVCAR-3) was 9.08 µM. For the same compound, the IC50 [15] was 4.09 µM, the IC50 [16] was 4.87 µM and the IC50 (HCT-116) was 7.69 µM. For the same compound, the IC50 [17] was 4.09 µM, the IC50 [18] was 5.45 µM and the IC50 (RKO) was 6.01 µM. For the same compound, the IC50 (LNCaP) was 3.01 µM, the IC50 [19] was 3.45 µM and the IC50 [20] was 6.02 µM. It also gave an IC50 [21] of 2.65 µM, an IC50 (SAOS-2) of 8.2 µM and an inhibition [22] of 10%. The IC50 (NCI-H460) was 6 µM, the IC50 [23] was 5.97 µM and the IC50 [24] was 6.34 µM. The IC50 [25] was 4.87 µM, the IC50 [26] was 8.19 µM and the IC50 [27] was 7.65 µM. For the same compound, the inhibition [28] was “inactive”, the IC50 (CAL-27) was 1.28 µM and the IC50 (TE-671) was 10.1 µM. It also gave an IC50 (MKN-45) of 7.26 µM, an IC50 (HT-29) of 13.7 µM and an IC50 [29] of 6.02 µM. For the same compound, the IC50 [30] was 7.04 µM, the inhibition [31] was 98% and the IC50 [35] was 0.1 µM. The IC50 [32] was 9.59 µM, the inhibition [33] was 87% and the IC50 (PANC-1) was 7.95 µM. For the same compound, the IC50 [34] was 6.28 µM.
